The text below walks through data of patent publication US9610249B2, “Dosage and administration for preventing cardiotoxicity in treatment with ERbB2-targeted immunoliposomes comprising anthracycline chemotherapeutic agents” (MERRIMACK PHARMACEUTICALS, INC., priority 2010, dated 2017).

Data set [1] is described as follows: Biodistribution of doxorubicin in heart tissue of NCI-N87 tumor bearing mice (HPLC). The settings on record: 3 mg/kg dox equiv. i.v. The method, then:
5-7-week-old female nude mice are purchased from Charles River Laboratories or Taconic Farms, Inc (NCr nude mice). Unless otherwise indicated, mice are inoculated with BT474-M3 breast cancer cells or NCI-N87 gastric cancer cells (NCI-DTP, 10×10^6 cells in 100 μl RPMI) into the right dorsal flank of the mice (subcutaneous injection, s.c.). When the tumors reach an average volume of ˜200 mm^3, studies are performed as described below.
(§1) Mice are randomized into 4 groups that received a single intravenous (i.v.) dose of either PBS, doxorubicin, MM-302-DiI5 or PLD-DiI5 (all at 3 mg/kg), respectively. Mice (n=4/time point/group) are sacrificed at 0.5, 4, 24 and 96 h (doxorubicin) or 168 h (MM-302-DiI5 and PLD-DiI5) after the single dose. Five minutes before sacrificing, mice are injected i.v. with 100 μl of FITC-lectin, to label the vasculature.
Heart tissues are weighed and disaggregated with 1 mL H2O using a TissueLyser™ (Qiagen) for 3 min. 100 μl of the homogenate is then transferred into a new tube and 900 μl of 1% acetic acid/methanol is added. For the cultured cells, cells are treated with drug, as described above, trypsinized and lysed using 1.0% acetic acid in methanol. Lysates are vortexed for 10 sec. and placed at −80° C. for 1 h. Samples are spun at room temperature (RT) for 10 min at 10,000 RPM. Supernatants and doxorubicin standards are analyzed by HPLC (Dionex) using a C18 reverse phase column (Synergi™ POLAR-RP® 80 Å, 250×4.60 mm 4 μm column). Doxorubicin is eluted running a gradient from 30% acetonitrile; 70% 0.1% trifluoroacetic acid (TFA)/H2O to 55% acetonitrile; 45% 0.1% TFA/H2O during a 7 min span at a flow rate of 1.0 ml/min. The doxorubicin peak is detected at 6.5 min using an in-line fluorescence detector excited at 485 nm, and emitting at 590 nm.
The macro-level biodistributions of MM-302 (square), PLD (UT-PLD, triangle) and doxorubicin (free dox, circle) were compared in mouse heart tissue (FIG. 7A), human xenograft tumor tissue (FIG. 7B) and paw tissue (FIG. 7C) in NCI-N87 tumor bearing mice inoculated as described above. Mice (n=4/time point/group) were injected i.v. with MM-302, PLD, or free doxorubicin (all at 3 mg/kg dox equiv.) and hearts were collected at 0.5, 4, 24, and 96 h (for dox) or 168 h (for MM-302 and PLD) post injection and doxorubicin quantified by HPLC (FIG. 7A).

The test system of data set [2] is phospho-HSP27. Type of data set: cell-based. The method, then:
(§2) Cardiomyocytes are treated as described above. Cells are fixed using 3.7% formaldehyde, washed twice with PBS containing 0.1% Tween-20 (PBS-T), and permeabilized with methanol. Cells are blocked using a 1:1 mixture of LI-COR® Odyssey® Blocking Buffer (Lincoln, Nebr.) and PBS-T for 1 h at room temperature (RT). Cells are stained with a 1:400 dilution of the indicated primary antibody from Cell Signaling Technology (Beverly, Mass.) and incubated shaking at 4° C. overnight. Cells are washed and incubated with a 1:2,000 dilution of the fluorescently labeled secondary antibody for 1 h at RT. Cells are stained with a 1:10,000 dilution of Hoechst 33342 and 1:1,000 dilution of Whole Cell Stain from Pierce Protein Research Products (Rockford, Ill.) for 30 min at RT to allow visualization of DNA and the whole cell, respectively. Plates are scanned using the Applied Precision Instruments ArrayWorx® High Content Scanner (Issaquah, Wash.) with a 10× objective for Hoechst 33342/Whole Cell Stain (460 nm), doxorubicin (595 nm), and APC/DiI5 (657 nm). Images are analyzed using the software ImageRail (as described in Millard et al., Nat Methods. 2011; 8:487-92). An intensity threshold is established for nuclear and whole cell signals. This threshold is then applied to all images and used to segment individual cells. […]

For data set [3], the system named is cleaved PARP (cPARP). Type of data set: cell-based. The method, then: as §2
For data set [4], the system named is phospho-p53. Put plainly: High-content analysis of cell stress in cardiomyocytes. It is filed as cell-based, human. The settings on record: ESCd cardiomyocytes, 3 h treatment, 24 h fresh media. On the procedure:
as §2

The subject of data set [5] is iPSd cardiomyocytes. The data set is described as follows: Uptake of liposomes in cardiomyocytes (HPLC). The conditions noted are these: iPSd cardiomyocytes (approximately 200,000 HER2 receptors per cell), 15.0 μg/ml dox equiv. It is filed as cell-based, human. On the procedure:
(§3) iPSd cardiomyocytes are plated per the manufacturer's instructions (Cell Dynamics International Cat #CMC-100-110-001) in a 24-well tissue culture plate at 250,000 cells/well. Two days later, the 0.5 ml of media in the wells is removed and replaced with 0.5 ml of 15.0 μg/ml (dox equiv.) of MM-302, PLD or free doxorubicin. The plates are swirled in a “figure 8 fashion” 20 times to maximize exposure of the cells to the liposomes. Cells are incubated with MM-302, PLD or free doxorubicin for the indicated time period after which the media are removed and the cells are washed once with 0.5 ml of PBS. The PBS is removed and 0.5 ml of 0.05% trypsin is added to each well. The cells are monitored, and once detachment begins, 0.5 ml of medium containing FBS is added to each well to inactivate the trypsin. The cells are collected and placed in microcentrifuge tubes. The cells are spun at 1,500 rpm for 5 minutes at 4° C. […] Samples are run on the HPLC machine and concentration per sample is determined by relating values to a doxorubicin standard curve.
(§4) To determine if the level of HER2 expression on cardiomyocytes is sufficient to induce uptake of MM-302, total cellular doxorubicin was quantified by HPLC following treatment of ESCd (FIG. 4A) and iPSd (FIG. 4B) cardiomyocytes.

Data set [6] deals with ESCd cardiomyocytes. Put plainly: Uptake of liposomes in cardiomyocytes (HPLC). Type of data set: cell-based, human. The settings on record: ESCd cardiomyocytes (approximately 70,000 HER2 receptors per cell), 15.0 μg/ml dox equiv. On the procedure:
as §3, §4

The conditions of data set [7]: patients; cited from earlier work.
Data set [8] concerns Troponin I (iPSd cardiomyocytes).
Experimental: 15,000 iPSd (iCELL®) cardiomyocytes (Cellular Dynamics International, Madison Wis.) cells are plated per the manufacturer's protocol. […] The supernatant is collected and analyzed using a human Troponin I ELISA (Catalog #: GWB-83A61F, Genway Biotech, San Diego Calif.) per the manufacturer's protocol. A PrestoBlue® Cell Viability Assay (Catalog #: A-13261, Invitrogen, Grand Island, N.Y.) is performed on the remaining cells in 100 μl per the manufacturer's protocol.
In data set [9] the test system is iPSd cardiomyocytes. It is filed as cell-based, human. An excerpt: Exposure to low levels of doxorubicin can be cytotoxic.
For data set [10], the system named is BT474-M3 cells. Put plainly: Binding and internalization into HER2 over-expressing tumor cells (total and nuclear doxorubicin). The settings on record: BT474-M3 (1.7×10^6 HER2/cell), 15 μg/ml, up to 3 h. Type of data set: cell-based, human.
A short description of data set [11]: Nuclear doxorubicin in heart sections (confocal microscopy and image analysis). The conditions noted are these: 3 mg/kg dox equiv. i.v. The method, then:
as §1

The test system of data set [12] is gamma-H2AX. It is filed as cell-based, human. The method, then:
as §2

Data set [13] deals with phospho-ERK (pERK). Put plainly: Signaling in iPS-derived cardiomyocytes. It is filed as cell-based, human. The settings on record: 24 hours pretreatment. On the procedure:
(§5) Cells are stained and imaged using high content microscopy as described above for (A) pAKT and (B) pERK following a10 minute stimulation with 10 nM and 5 nM of heregulin, respectively. The following primary antibodies are used at a 1:400 dilution in blocking buffer: pERK antibody—Cell Signaling Technology (CST—Danvers Mass.)—Catalog 9106L (Phospho-p44/42 MAPK (Erk1/2) (Thr202/Tyr204) (E10) Mouse mAb #9106); pAKT antibody—CST—Catalog 4060L (Phospho-Akt (Ser473) (D9E) XP™ Rabbit mAb #4060). Secondary antibodies are Anti-mouse IgG (H+L), F(ab′)2 Fragment (Alexa Fluor® 647 Conjugate)—CST—Catalog 4410; Anti-rabbit IgG (H+L), F(ab′)2 Fragment (Alexa Fluor® 647 Conjugate)—CST—Catalog 4414. Whole cell stain and DNA stain (Hoechst 33342) are used as described above. Images are analyzed and individual cells are segmented on the basis of Hoechst 33342 nuclear staining. Single cell signal intensity for each stain is quantified and represented as the mean relative intensity of individual cells.
(§6) After stimulation with 10 nM (FIG. 6A) and 5 nM (FIG. 6B) of heregulin (HRG) for 10 min, the levels of phospho-AKT (pAKT, FIG. 6A) and phospho-ERK (pERK, FIG. 6B) were measured by high content microscopy as described above.

In data set [14] the test system is phospho-AKT (pAKT). The data set is described as follows: Signaling in iPS-derived cardiomyocytes. It is filed as cell-based, human. The settings on record: 24 hours pretreatment. The method, then:
as §5, §6

Consider `COc1cccc2c1C(=O)c1c(O)c3c(c(O)c1C2=O)C[C@@](O)(C(=O)CO)C[C@@H]3O[C@H]1C[C@H](N)[C@H](O)[C@H](C)O1` [doxorubicin, Doxorubicin], for which, in data set [1], the “clearance of doxorubicin from the heart tissue” value is “faster compared to MM-302 and PLD”. Also, in [1], the “time of peak doxorubicin exposure in the heart” value amounted to 0.5 h. Also, the “doxorubicin in the heart at 0.5 h” value in data set [1] (0.5 h post injection) is given as 10 % of injected dose (i.d.)/g tissue. Moreover, the “doxorubicin in the heart at 24 h” value in data set [1] (24 h post injection) is 0.77 % of i.d./g tissue. In addition, in data set [2], the phospho-HSP27 entry is given as “dose-dependent increase”. In addition, the “nuclear cleaved PARP (cPARP) at 5.0 μg/ml” value in data set [3] is “increase in nuclear cleaved PARP”. Further, in data set [4], the phospho-p53 result was “dose-dependent increase”. The “total cellular doxorubicin (uptake)” value in data set [5] and in [6] was “doxorubicin accumulation in all cells” throughout. In addition, the “cumulative doxorubicin exposure that increases the potential for cardiomyopathy and heart failure” value in data set [7] is recorded as “above 550 mg/m^2”. Besides, the “Troponin I in supernatant” value in data set [8] was “marked increase of Troponin I”. Moreover, the “effect on cardiomyocyte viability” value in data set [9] is on record as “marked decrease in viability”. Moreover, in data set [10], the “total cell binding and nuclear doxorubicin accumulation” value was “freely enter cells and accumulate in the nucleus”. The “nuclei positive for doxorubicin in heart tissue at 0.5 h” value in data set [11] (0.5 h) is recorded as “about 50%”. The “nuclei positive for doxorubicin in heart tissue at 4 h” value in data set [11] (4 h) was found to be 23%. Further, the “nuclei positive for doxorubicin in heart tissue at 24 h” value in data set [11] (24 h) was “returned to basal levels”. Further, the “nuclear gamma-H2AX” value in [12] is “dose-dependent increase in nuclear gamma-H2AX”.
Regarding `CS(=O)(=O)CCNCc1ccc(-c2ccc3ncnc(Nc4ccc(OCc5cccc(F)c5)c(Cl)c4)c3c2)o1` [lapatinib], the “basal phosphorylation of ERK” value in data set [13] (no heregulin) is given as “reduction in basal phosphorylation”. Also, the “heregulin (HRG)-induced phosphorylation of ERK” value in data set [13] (5 nM heregulin, 10 min) was “complete inhibition of HRG-induced phosphorylation”. Moreover, the “basal phosphorylation of AKT” value in [14] (no heregulin) was “reduction in basal phosphorylation”. The “heregulin (HRG)-induced phosphorylation of AKT” value in [14] (10 nM heregulin, 10 min) is “complete inhibition of HRG-induced phosphorylation”.
